From PubChem BioAssay (NCI)
Several values for one entry are separate records, joined by “and”; a condition that tells them apart may be missing. Equal values may be shown once.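 The compound was tested at five concentrations on cells cultured in 96-well plates, with a 48-hour exposure period. GI50 is the concentration that inhibits growth by half. TGI marks complete inhibition of growth.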

What follows are compounds tested on SN12C renal (assay: NCI-60 cell line screen, 48 h).
`CCCCCCCC(=O)OCC1OC(n2cc(F)c(=O)[nH]c2=O)C(N)C(OC(=O)CCCCCCC)C1O` (stereo unspecified) was tested, and the TGI was 32.5 µM. `CCOc1ccc(NC(=O)CC2SC(=Nc3ccc(C)cc3C)NC2=O)cc1` (stereo unspecified) was tested, and the TGI was greater than 100 µM. `CCSc1nc(N=Cc2ccccc2O)c2cn[nH]c2n1` gave a GI50 of 26.3 µM and a TGI of 95.1 µM. With `O=C(CNc1ccc(Cl)cc1Cl)Nn1c(-c2ccccc2)nc2ccccc2c1=O` the TGI was 30.5 µM. In the case of `CSC[C@H](NC(=O)COc1cccc2cnccc12)C(=O)NC(Cc1ccccc1)C(O)C(=O)N1CSC[C@H]1C(=O)NC(C)(C)C` (stereo partly specified), the TGI is reported as greater than 100 µM. `C[C@H](CCOc1cccc(CC(=O)O)c1)N(Cc1cccc(C(F)(F)F)c1Cl)CC(c1ccccc1)c1ccccc1` showed a GI50 of 5.33 µM and a TGI of 18.7 µM. `O=[N+]([O-])c1cccnc1N=Nc1c(O)[nH]c2ccccc12` showed a TGI of 86.5 µM. Work on `CNc1cc2oc(=O)cc(C)c2cc1C` yielded a TGI greater than 100 µM. For `O=C1C=C(Nc2ccc(Cl)cc2C(=O)c2ccccc2)c2ccccc2C1=O`, the TGI was greater than 100 µM. `CCN(CCNS(C)(=O)=O)c1ccc(N)c(C)c1` showed a GI50 of 11.4 µM and a TGI of 23.9 µM. With `CC1=C(C(=O)Nc2ccccc2)C(c2ccc(Cl)c(Cl)c2)C(C(=O)Nc2ccccc2)=C(C)N1` the TGI was 28.5 µM. `COc1ccc(NC(=O)CSc2nnc(-c3ccc(NC(C)=O)cc3)o2)cc1` was tested, and the TGI was 41.9 µM. Work on `NCCCn1c2c(c3ccc([N+](=O)[O-])cc3c1=O)C(=O)c1cc(I)ccc1-2` yielded a GI50 of less than 0.0234 µM and a TGI of 1.78 µM.

What follows are compounds tested on TK-10 renal (assay: NCI-60 cell line screen, 48 h).
`Nc1c(C(=O)Nc2ccccn2)sc2nc3c(cc12)C(=O)CCC3` gave a GI50 of 22.3 µM and a TGI greater than 100 µM. In the case of `N#CC(I)CS(=O)(=O)c1ccccc1` (stereo unspecified), the GI50 is reported as 1.75 µM and the TGI is reported as 3.3 µM. For `COc1ccc2c(=O)oc3c(OC)cc(CCN(C)C)c4c(=O)oc1c2c34`, the GI50 was 20.2 µM and 8.68 µM and the TGI was 37.1 µM and 16.7 µM. For `COc1ccc(Cl)cc1NC(=O)c1ccc(NC2=C(Cl)C(=O)N(Cc3ccccc3)C2=O)cc1`, the GI50 was greater than 100 µM and the TGI was greater than 100 µM. `Cc1nc2sccn2c1-c1nc2sccn2c1/C=C1/C(=O)Nc2ccccc21` showed a GI50 of 13.5 µM and a TGI greater than 100 µM. Compound `Cc1cccc(NC2=C(Cl)C(=O)c3nc(C)ccc3C2=O)c1` has a GI50 of 2.58 µM and a TGI of 4.17 µM. In the case of `O=Cc1cc2c(cc1-c1cc3c(cc1C=O)OCO3)OCO2`, the TGI is reported as greater than 100 µM. `C/C(=N\NC(N)=O)c1sc(-c2nc(C)c(/C(C)=N/NC(N)=O)s2)nc1C` showed a TGI greater than 100 µM. With `CN(C)CCNC(=O)Cc1ccccc1Nc1c(Cl)cccc1Cl` the TGI was 27.2 µM. Compound `CCCCCCCCSC1=C(Cl)C(=O)C(OC)=C(OC)C1=O` has a TGI of 28.5 µM. For `C[N+](C)(C)CC(=O)N/N=C(/Cc1cc(=O)oc2cc(O)ccc12)C(=O)Nc1ccc(Cl)cc1`, the TGI was greater than 100 µM. With `COc1cccc2c1O/C(=C\c1ccc([N+](=O)[O-])s1)C2=O` the GI50 was 3.16 µM and the TGI was 8.83 µM. With `O=S(=O)(OI(OI(OS(=O)(=O)C(F)(F)F)c1ccccc1)c1ccccc1)C(F)(F)F` the TGI was greater than 100 µM. Work on `FC(F)(F)c1ccc2nc(NCc3ccccc3)c(-c3ccccc3)nc2c1` yielded a TGI greater than 100 µM. Compound `COc1cc(C[P+](c2ccccc2)(c2ccccc2)c2ccccc2)cc(OC)c1OC` has a TGI greater than 100 µM. For `CC(C)=CCC1=C(O)c2ccccc2C(=O)C1=O`, the GI50 was > 100 µM and 37.8 µM and 87.1 µM and the TGI was greater than 100 µM. `C=C(C)[C@@H]1CC[C@]2(CN)CC[C@]3(C)[C@H](CC[C@@H]4[C@@]5(C)CCCNC(C)(C)[C@@H]5CC[C@]43C)[C@@H]12` gave a GI50 of 1.86 µM and a TGI of 3.52 µM. Work on `CCCN(CCC)c1c([N+](=O)[O-])cc(C(=O)N(CC)CC)cc1[N+](=O)[O-]` yielded a TGI of 76.8 µM. For `C=C(CN(C)Cc1ccccc1)c1ccc(NC(=O)c2ccc(C(=C)CN(C)Cc3ccccc3)cc2)cc1`, the GI50 was greater than 100 µM and the TGI was greater than 100 µM. `CN1Nc2ccccc2CC1=O` gave a TGI greater than 100 µM. In the case of `CCOc1ccc(OCC(=O)O)c2c1CCCC2=O`, the TGI is reported as greater than 100 µM. `CCCCCCCC(=O)OCC1OC(n2cc(F)c(=O)[nH]c2=O)C(N)C(OC(=O)CCCCCCC)C1O` (stereo unspecified) gave a TGI of 56.9 µM. With `CCOc1ccc(NC(=O)CC2SC(=Nc3ccc(C)cc3C)NC2=O)cc1` (stereo unspecified) the TGI was greater than 100 µM. For `CCSc1nc(N=Cc2ccccc2O)c2cn[nH]c2n1`, the GI50 was 9.67 µM and the TGI was 36.6 µM. `O=C(CNc1ccc(Cl)cc1Cl)Nn1c(-c2ccccc2)nc2ccccc2c1=O` was tested, and the TGI was 36.1 µM. With `CSC[C@H](NC(=O)COc1cccc2cnccc12)C(=O)NC(Cc1ccccc1)C(O)C(=O)N1CSC[C@H]1C(=O)NC(C)(C)C` (stereo partly specified) the TGI was greater than 100 µM. In the case of `C[C@H](CCOc1cccc(CC(=O)O)c1)N(Cc1cccc(C(F)(F)F)c1Cl)CC(c1ccccc1)c1ccccc1`, the GI50 is reported as 10.3 µM and the TGI is reported as 23.1 µM. In the case of `O=[N+]([O-])c1cccnc1N=Nc1c(O)[nH]c2ccccc12`, the TGI is reported as 40.8 µM. In the case of `CNc1cc2oc(=O)cc(C)c2cc1C`, the TGI is reported as greater than 100 µM. For `O=C1C=C(Nc2ccc(Cl)cc2C(=O)c2ccccc2)c2ccccc2C1=O`, the TGI was greater than 100 µM. `CCN(CCNS(C)(=O)=O)c1ccc(N)c(C)c1` showed a GI50 of 3.44 µM and a TGI of 7.73 µM. With `CC1=C(C(=O)Nc2ccccc2)C(c2ccc(Cl)c(Cl)c2)C(C(=O)Nc2ccccc2)=C(C)N1` the TGI was 75.2 µM. In the case of `COc1ccc(NC(=O)CSc2nnc(-c3ccc(NC(C)=O)cc3)o2)cc1`, the TGI is reported as 41.2 µM.

These compounds were tested on U251 CNS (assay: NCI-60 cell line screen, 48 h).
Work on `Nc1c(C(=O)Nc2ccccn2)sc2nc3c(cc12)C(=O)CCC3` yielded a GI50 of 1.34 µM and a TGI greater than 100 µM. `Cc1nc2c(Br)cc(Br)cc2c(=O)n1-c1nnc(-c2cccc(Cl)c2Cl)c(N)n1` gave a GI50 of 21.7 µM and a TGI of 72.5 µM. Work on `N#CC(I)CS(=O)(=O)c1ccccc1` (stereo unspecified) yielded a GI50 greater than 100 µM and a TGI greater than 100 µM. In the case of `COc1ccc2c(=O)oc3c(OC)cc(CCN(C)C)c4c(=O)oc1c2c34`, the TGI is reported as 27.6 µM and 19 µM. In the case of `COc1ccc(Cl)cc1NC(=O)c1ccc(NC2=C(Cl)C(=O)N(Cc3ccccc3)C2=O)cc1`, the GI50 is reported as 28.3 µM and the TGI is reported as greater than 100 µM. Work on `Cc1nc2sccn2c1-c1nc2sccn2c1/C=C1/C(=O)Nc2ccccc21` yielded a GI50 of 4.54 µM and a TGI of 64.8 µM. Compound `Cc1cccc(NC2=C(Cl)C(=O)c3nc(C)ccc3C2=O)c1` has a GI50 of 1.09 µM and a TGI of 2.67 µM. Work on `O=Cc1cc2c(cc1-c1cc3c(cc1C=O)OCO3)OCO2` yielded a TGI greater than 100 µM. `C/C(=N\NC(N)=O)c1sc(-c2nc(C)c(/C(C)=N/NC(N)=O)s2)nc1C` gave a TGI greater than 100 µM. `CN(C)CCNC(=O)Cc1ccccc1Nc1c(Cl)cccc1Cl` showed a TGI of 23.6 µM. Work on `CCCCCCCCSC1=C(Cl)C(=O)C(OC)=C(OC)C1=O` yielded a TGI of 26.6 µM. For `COC(=O)c1c2c(c(C)[n+]([O-])c1C)C(=O)C(NCc1ccc(Br)cc1)=CC2=O`, the GI50 was 2.14 µM and the TGI was 6.01 µM. Compound `COc1cccc2c1O/C(=C\c1ccc([N+](=O)[O-])s1)C2=O` has a GI50 of 2.42 µM and a TGI greater than 20.3 µM. In the case of `O=S(=O)(OI(OI(OS(=O)(=O)C(F)(F)F)c1ccccc1)c1ccccc1)C(F)(F)F`, the TGI is reported as greater than 100 µM. Work on `FC(F)(F)c1ccc2nc(NCc3ccccc3)c(-c3ccccc3)nc2c1` yielded a TGI of 86.8 µM. `COc1cc(C[P+](c2ccccc2)(c2ccccc2)c2ccccc2)cc(OC)c1OC` showed a TGI greater than 100 µM. Work on `CC(C)=CCC1=C(O)c2ccccc2C(=O)C1=O` yielded a TGI greater than 100 µM. For `C=C(C)[C@@H]1CC[C@]2(CN)CC[C@]3(C)[C@H](CC[C@@H]4[C@@]5(C)CCCNC(C)(C)[C@@H]5CC[C@]43C)[C@@H]12`, the GI50 was 1.8 µM and the TGI was 3.33 µM. `CCCN(CCC)c1c([N+](=O)[O-])cc(C(=O)N(CC)CC)cc1[N+](=O)[O-]` showed a TGI of 32.7 µM. `C=C(CN(C)Cc1ccccc1)c1ccc(NC(=O)c2ccc(C(=C)CN(C)Cc3ccccc3)cc2)cc1` showed a GI50 of 20.7 µM and a TGI of 45.7 µM. Compound `CN1Nc2ccccc2CC1=O` has a TGI greater than 100 µM. Compound `CCOc1ccc(OCC(=O)O)c2c1CCCC2=O` has a TGI greater than 100 µM. `CCCCCCCC(=O)OCC1OC(n2cc(F)c(=O)[nH]c2=O)C(N)C(OC(=O)CCCCCCC)C1O` (stereo unspecified) showed a TGI of 33.6 µM. `CCOc1ccc(NC(=O)CC2SC(=Nc3ccc(C)cc3C)NC2=O)cc1` (stereo unspecified) showed a TGI greater than 100 µM. Compound `CCSc1nc(N=Cc2ccccc2O)c2cn[nH]c2n1` has a GI50 of 44.4 µM and a TGI greater than 100 µM. With `CSC[C@H](NC(=O)COc1cccc2cnccc12)C(=O)NC(Cc1ccccc1)C(O)C(=O)N1CSC[C@H]1C(=O)NC(C)(C)C` (stereo partly specified) the TGI was greater than 100 µM. Compound `C[C@H](CCOc1cccc(CC(=O)O)c1)N(Cc1cccc(C(F)(F)F)c1Cl)CC(c1ccccc1)c1ccccc1` has a GI50 of 4.1 µM and a TGI of 19.3 µM. `O=[N+]([O-])c1cccnc1N=Nc1c(O)[nH]c2ccccc12` showed a TGI greater than 100 µM. `CNc1cc2oc(=O)cc(C)c2cc1C` was tested, and the TGI was greater than 100 µM. Work on `O=C1C=C(Nc2ccc(Cl)cc2C(=O)c2ccccc2)c2ccccc2C1=O` yielded a TGI greater than 100 µM. `CCN(CCNS(C)(=O)=O)c1ccc(N)c(C)c1` gave a GI50 of 18.1 µM and a TGI of 32.5 µM. With `CC1=C(C(=O)Nc2ccccc2)C(c2ccc(Cl)c(Cl)c2)C(C(=O)Nc2ccccc2)=C(C)N1` the TGI was 27.6 µM. `COc1ccc(NC(=O)CSc2nnc(-c3ccc(NC(C)=O)cc3)o2)cc1` was tested, and the TGI was 33.7 µM. `NCCCn1c2c(c3ccc([N+](=O)[O-])cc3c1=O)C(=O)c1cc(I)ccc1-2` gave a GI50 of less than 0.01 µM and a TGI of 1.39 µM.
